Total tube length data for 1 compound are collected here from patent US9999704B2, “Amphiphilic degradable polymers for immobilization and sustained delivery of biomolecules” (University of Massachusetts, priority 2014, dated 2018).

This experiment has as its system Human umbilical vein endothelial cells (HUVECs). Briefly: HUVEC-Matrigel tube formation assay. The experiment is classed as cell-based. The note with it: free S1P solution, 17 h. As for the experimental part: The electrospun meshes were punched into circles of 6.3 mm in diameter, weighed and sterilized with UV irradiation (254 nm, 1 h for each side). Fresh S1P solutions in PBS were carefully loaded onto each mesh (for S1P release study: 5 μL of 0.76-μg/μL solution to achieve 3.8-μg S1P loading per mesh; for tube formation assay: 2 or 10 μL of 0.19-μg/μL solution to achieve 0.38-μg or 1.90-μg S1P loading per mesh). The S1P-loaded meshes were incubated at 37° C. for 1 h and 4° C. for another 4 h before they were air-dried in laminar flow hood overnight.
Human umbilical vein endothelial cells (HUVECs, ATCC, passage 6), were cultured on gelatin-coated plates in M199 medium with 20% fetal bovine serum (FBS), 3 ng/mL bFGF, 5 units/mL heparin and 100 U/100 μg/mL Pen/Strep at 37° C. under 5% CO2. The 96-well culture plate was coated with 50 μL/well growth factor reduced Matrigel and incubated at 37° C. for 0.5 h to allow Matrigel to solidify. Then HUVECs suspended in 100 μL of M199 medium with 0.1% FBS and 100 U/100 μg/mL Pen/Strep were seeded on the Matrigel at 2×10^4 cells/well. After 30 min of cell attachment, PBS solutions of S1P or S1P-loaded meshes were carefully added to each well, followed by continued incubation at 37° C. for 17 h. After removing the meshes and culture media, the HUVECs were fixed with 10% formalin saline solution and imaged with an Axiovert 40 CFL microscope equipped with a QImaging camera at 25× and 100× magnifications. The total tube length in each well (n=3-4) was quantified by ImageJ (NIH).

With `CCCCCCCCCCCCC/C=C/[C@@H](O)[C@@H](N)COP(=O)(O)O` [S1P, Sphingosine-1-phosphate], the total tube length result reads like this: (1-μM, no polymer carrier) “increased”; (10-μM, no polymer carrier) “proangiogenic effect was compromised”; (50-μM, vs. no-S1P control) “significantly inhibited tube formation”.
